Article PMC4043309 (Journal of medicinal chemistry, 2013)

What was measured:
Stabilities = type: physicochemical; conditions: for stability: isomerization on storage: methanol or methanol–chloroform mixture (v/v 1:1) as solvent
[1] = target: T1, recombinant human estrogen receptor-α (ER-α) (Homo sapiens, UniProt P03372); type: binding; conditions: at 100 μM compound
T1 sequence (P03372 1-595): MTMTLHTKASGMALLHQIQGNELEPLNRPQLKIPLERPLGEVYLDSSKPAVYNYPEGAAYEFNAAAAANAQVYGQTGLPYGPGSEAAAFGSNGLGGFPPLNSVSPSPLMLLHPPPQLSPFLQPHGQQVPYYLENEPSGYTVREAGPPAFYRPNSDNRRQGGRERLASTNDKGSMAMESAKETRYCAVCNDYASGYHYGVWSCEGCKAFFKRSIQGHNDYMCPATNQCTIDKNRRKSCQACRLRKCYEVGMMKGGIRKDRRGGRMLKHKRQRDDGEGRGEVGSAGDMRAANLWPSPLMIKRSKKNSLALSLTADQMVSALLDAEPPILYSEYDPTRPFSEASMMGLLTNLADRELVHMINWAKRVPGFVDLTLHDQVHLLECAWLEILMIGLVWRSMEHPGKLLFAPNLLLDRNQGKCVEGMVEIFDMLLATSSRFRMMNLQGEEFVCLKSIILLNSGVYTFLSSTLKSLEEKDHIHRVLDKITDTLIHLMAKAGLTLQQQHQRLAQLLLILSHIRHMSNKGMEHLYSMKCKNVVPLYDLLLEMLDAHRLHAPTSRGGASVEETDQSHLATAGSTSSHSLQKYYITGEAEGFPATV

[2] = target: recombinant human estrogen receptor-β (ER-β) (Homo sapiens, UniProt Q92731); type: binding; conditions: at 100 μM compound
recombinant human estrogen receptor-β (ER-β), sequence (Q92731 whole entry): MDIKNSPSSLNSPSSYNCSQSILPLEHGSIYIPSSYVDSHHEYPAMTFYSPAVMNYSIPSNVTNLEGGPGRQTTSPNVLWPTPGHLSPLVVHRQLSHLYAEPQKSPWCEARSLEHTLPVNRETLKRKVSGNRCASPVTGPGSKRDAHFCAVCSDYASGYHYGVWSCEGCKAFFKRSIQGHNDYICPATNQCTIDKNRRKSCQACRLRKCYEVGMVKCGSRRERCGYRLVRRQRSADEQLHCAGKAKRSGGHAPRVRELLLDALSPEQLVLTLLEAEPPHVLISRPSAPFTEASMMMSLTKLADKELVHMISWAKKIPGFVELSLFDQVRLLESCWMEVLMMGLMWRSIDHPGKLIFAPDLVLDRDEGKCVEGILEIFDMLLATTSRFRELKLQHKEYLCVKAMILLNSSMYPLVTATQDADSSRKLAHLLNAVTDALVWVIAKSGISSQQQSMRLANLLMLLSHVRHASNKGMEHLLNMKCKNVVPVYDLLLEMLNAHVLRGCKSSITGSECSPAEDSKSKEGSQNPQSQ

[3] = target: T2, recombinant human aromatase (CYP19) (Homo sapiens, UniProt P11511); assay: Inhibition of recombinant human aromatase
T2 sequence (P11511 1-503): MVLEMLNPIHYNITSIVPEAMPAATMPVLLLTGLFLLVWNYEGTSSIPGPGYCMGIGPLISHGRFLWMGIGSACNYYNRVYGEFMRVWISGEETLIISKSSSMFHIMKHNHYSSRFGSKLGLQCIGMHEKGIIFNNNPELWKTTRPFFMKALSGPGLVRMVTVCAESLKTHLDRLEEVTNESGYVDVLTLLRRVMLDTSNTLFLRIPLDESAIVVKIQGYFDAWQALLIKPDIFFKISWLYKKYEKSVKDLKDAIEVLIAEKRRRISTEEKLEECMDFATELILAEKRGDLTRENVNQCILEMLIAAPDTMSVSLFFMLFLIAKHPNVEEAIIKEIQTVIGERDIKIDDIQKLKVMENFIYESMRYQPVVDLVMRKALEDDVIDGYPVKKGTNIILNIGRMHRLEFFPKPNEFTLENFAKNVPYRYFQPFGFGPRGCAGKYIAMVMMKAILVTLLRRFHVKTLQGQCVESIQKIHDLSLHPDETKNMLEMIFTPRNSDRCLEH

Row | SMILES | stability: isomerization on storage (Stabilities) | stability: isomerization to mixed (E,Z)-norendoxifen (Stabilities; chloroform (or dichloromethane) as the single solvent) | ER-α percent competition [1] [% competition] | ER-β percent competition [2] [% competition] | fold less potent against aromatase than mixed (E,Z)-norendoxifen [3] [fold]
1 | CC/C(=C(/c1ccc(O)cc1)c1ccc(OCCN)cc1)c1ccccc1 [E-4, (E)-4-(1-(4-(2-Aminoethoxy)phenyl)-2-phenylbut-1-enyl)phenol] | stored for at least a few weeks without substantial isomerization | – | – | – | –
2 | CC/C(=C(\c1ccc(O)cc1)c1ccc(OCCN)cc1)c1ccccc1 [Z-4, (Z)-4-(1-(4-(2-Aminoethoxy)phenyl)-2-phenylbut-1-enyl)phenol] | stored for at least a few weeks without substantial isomerization | fast isomerization | – | – | –
3 | CCC(=C(c1ccc(O)cc1)c1ccc(O)cc1)c1ccccc1 [compound 2, 4,4′-(2-Phenylbut-1-ene-1,1-diyl)diphenol] | – | – | 80 | – | –
4 | CC/C(=C(\c1ccc(O)cc1)c1ccc(OCC(N)=O)cc1)c1ccccc1 [compound 3, (E,Z)-2-(4-(1-(4-Hydroxyphenyl)-2-phenylbut-1-enyl)phenoxy)-acetamide] | – | – | 57 | 71 | 90
5 | CC/C(=C(/c1ccc(O)cc1)c1ccc(OC(=O)C(C)(C)C)cc1)c1ccccc1 [compound 6, (E)-4-(1-(4-Hydroxyphenyl)-2-phenylbut-1-enyl)phenyl Pivalate] | – | – | 68 | 68 | –
6 | CC/C(=C(/c1ccc(OCC(N)=O)cc1)c1ccc(OC(=O)C(C)(C)C)cc1)c1ccccc1 [compound 7, (E)-4-(1-(4-(2-Amino-2-oxoethoxy)phenyl)-2-phenylbut-1-enyl)-phenyl Pivalate] | – | – | 56 | 45 | –
